Here are results for one compound from patent publication US9636311B2, “N,N′-di-1 naphthylguanidine HCl (NAGH) and N,N′-di-p-nitrophenylguanidine HCl (NAD) treatment for stroke at delayed timepoints” (University of South Florida, priority 2012, dated 2017).

Experiment [1] deals with rats following MCAO. Description: White matter injury, Luxol Fast Blue staining after MCAO. It is filed as in vivo, rat. As to conditions: 30 days post-stroke. Here is the method:
(§1) MCAO surgeries were performed as described elsewhere (Vendrame M, Cassady C J, Newcomb J, Butler T, Pennypacker K R, Zigova T, et al. Stroke. 2004; 35:2390-2395). Briefly, rats were anesthetized with isoflurane, and the right common carotid and external carotid arteries were exposed using blunt dissection techniques. The vagus nerve was separated from common carotid artery and the external carotid artery was ligated proximally, and transected near the bifurcation. An embolus 40 mm in length (4.0 siliconized monofilament) was inserted into the external carotid artery and fed distally into the origin of the middle cerebral artery (˜25 mm from insertion) through the internal carotid artery. Blood samples were taken and analyzed using an i-STAT handheld analyzer for hemoglobin, hematocrit, ionized calcium, glucose, sodium, potassium, pH, pCO2, HCO3, TCO2, base excess, pO2, and O2. Cerebral blood flow was recorded using a Laser Doppler Monitor (Moor Instruments) to verify occlusion. Afterwards, the embolus was ligated permanently into the vessel and the neck incision was closed. Animals were treated with Ketoprofen IM (10 mg/kg) for three days post-surgery.
(§2) For the NAGH studies, vehicle or NAGH were prepared fresh each day. Daily subcutaneous injections (s.c) were administered beginning about 24 hours after MCAO and continued daily to about 72 hours post-surgery (FIG. 1). Animals received a total of 3 injections. A total of 84 animals were randomly assigned into 2 groups: Rats treated with vehicle (40% DMSO in sterile saline, n=42), or rats treated with 0.86 mg/kg NAGH (n=42).
To evaluate white matter injury, coronal brain sections from each the animals were stained with Luxol Fast Blue (LFB; Sigma-Aldrich). For Luxol Fast Blue (LFB) staining, slides were dehydrated in 95% ethanol and incubated in LFB solution at 56° C. overnight. The following day slides were rinsed in 95% ethanol and distilled water and differentiated in 0.1% lithium carbonate solution for 20 s followed by 70% ethyl alcohol for 30 s, and finally rinsed in distilled water. After complete gray and white matter differentiation, slides were dehydrated and placed under coverslips with DPX. The quantitative analysis for demyelination in LFB staining section was performed as described previously with some modification (Virgili, Espinosa-Parrilla et al. 2011; Yu, Gong et al. 2012). LFB stained area was measured on the randomly selected sections (n=21-23 animals/group) to assess demyelination. The extent of the LFB positive area was quantified using a pixel grayscale approach in ImageJ software (National Institute of Health, USA). […] Once calibrated, the amount of LFB staining was measured as the percentage of hemispheric area using ImageJ software.

For a further experiment, the system named is microglial cells. Put plainly: Inhibition of microglial migration evoked by ATP. It is filed as cell-based. As to the method:
(§3) FIG. 8 is a series of images confirming NAGH acts as a sigma receptor agonist. A) Concentration-response relationship for NAGH (closed circles) and DTG (open circles) inhibition of microglial migration evoked by 100 μM ATP. […] Points represent mean (±SEM) and for all points, n>9. B) Bar graph of the mean (±SEM) number of microglial cells migrating in response to 100 μM ATP when ATP was added alone (DMEM) or in the presence of 100 μM NAGH. Microglia were further exposed to no σ antagonist (Control), or the σ-1 antagonist, BD-1047 (10 μM, BD-1047), or the σ-2 antagonist, rimcazole (10 μM, Rimcazole). Asterisks denote significant difference between DMEM and NAGH within Control, BD-1047 and Rimcazole groups, respectively. Pound symbols indicate significant difference between Control, BD-1047 and Rimcazole within DMEM and NAGH groups, respectively. P<0.05 and n=24 for all groups.
as §3, with “8A illustrates the concentration-response” for “8 is a series of images confirming NAGH acts as a sigma receptor agonist. A) Concentration-response”, “FIG. 8B depicts a bar” for “B) Bar”

Experiment [2] has as its system rats following MCAO. Put plainly: Spontaneous activity (automated activity monitor) after MCAO. It is filed as in vivo, rat. The settings on record: 1 month post MCAO. As to the method:
as §1, §2
For NAD testing, a total of 32 animals were randomly assigned into 2 groups: Vehicle (n=16), and rat treated with 2.8 mg/kg NAD (n=16). Vehicle consisted of 40% DMSO in sterile saline.
Spontaneous Activity was measured during both the day (1 hr) and night (12 hrs) using an automated activity monitor (VersaMax, Accuscan Instruments, Inc). Spontaneous Activity was measured prior to stroke to establish the normal baseline for each individual animal as well as 1 month after the MCAO. The animals were placed in a Plexiglas box and allowed to roam freely. There is a three dimensional infrared array in this box and when a beam is broken, activity is recorded. A total of sixteen parameters were measured including: Vertical movement, Horizontal movement, and Stereotypic activity were selected for analysis: Horizontal activity (HA), Total distance travelled (TD), Number of movements (MVN), Movement time (MVT), Vertical activity (VA), Number of vertical movements (VMN), vertical time (VT), Stereotype counts (SC), Number of Stereotypy (SN), Stereotypy time (ST), Clockwise rotation (CR), counterclockwise rotation (CCR), Margin distance (MD), Marginal time (MT), Center distance (CD), and Center time (CT). The data are presented as mean+SEM of percent of baseline behavior.

[3] abbreviates: migration evoked by 100 μM ATP, two-component Langmuir-Hill fit.

Structures are written as SMILES. Like-named read-outs stand apart in the source and are kept apart here.

Regarding `Cl.N=C(Nc1cccc2ccccc12)Nc1cccc2ccccc12` [NAGH, N,N′-di-1-Naphthylguanidine hydrochloride], the “White matter tracts (LFB) vs DMSO” value with rats following MCAO [1] was “white matter tracts were more intact”. The “Percent change in LFB staining from contralateral to ipsilateral hemisphere” value in the experiment with rats following MCAO [1] (p<0.05 vs DMSO) was −0.73+7.7%. In the experiment on rats following MCAO [1] (NAGH 0.86 mg/kg s.c. x3, n=22), the “LFB staining, ischemic hemisphere (percentage of hemispheric area)” value is given as 10.32±0.48% and the “LFB staining, non-ischemic hemisphere (percentage of hemispheric area)” value is on record as 9.81±0.38%. In addition, the “Microglial migration” value in the experiment with microglial cells (100 μM ATP, via σ-1 and σ-2 receptors) is listed as “blocks microglial migration”. In addition, in the experiment on microglial cells (setting [3]), the “Emax, high affinity component” value is 0.43; the “Emax, low affinity component” value is on record as 0.57; the “Hill coefficient, high affinity component” value worked out at 2.2; the “Hill coefficient, low affinity component” value is 0.80. The IC50 (as a rule, the concentration needed to halve the response being measured) with microglial cells (migration evoked by 100 μM ATP, two-component Langmuir-Hill fit, read-out: IC50, high affinity component) was 0.75 µM. Moreover, the IC50 in the experiment on microglial cells (read-out: IC50, low affinity component) came out at 84 µM. Besides, the “Daytime horizontal activities vs DMSO” value in the experiment on rats following MCAO [2] (1-hr test) is reported as “no significant differences”. For the same compound, the “Daytime vertical time (VT) vs DMSO” value in the experiment on rats following MCAO [2] (1-hr test, p=0.01) is recorded as “significantly less active”. Besides, the “Daytime vertical activity (VA) vs DMSO” value in the experiment with rats following MCAO [2] (1-hr test, p=0.03) was “significantly less active”. The “Daytime number of vertical movements (VMN) vs DMSO” value with rats following MCAO [2] (1-hr test, p=0.15) is listed as “more active than DMSO group”. Further, the “Daytime stereotypy activity (SC, SN, ST) decrease vs DMSO” value in the experiment with rats following MCAO [2] (1-hr test, p>0.05) is “failed to reach a statistically significant level”. Besides, in the experiment with rats following MCAO [2] (12-hr test), the “Nighttime horizontal parameters decrease vs DMSO” value is listed as “did not reach statistical significance” and the “Nighttime stereotypic behavior (SC, SN, ST) vs DMSO” value is given as “did not show any significant difference”. Also, the “Nighttime vertical activity (VA) vs DMSO” value with rats following MCAO [2] (12-hr test, p=0.01) was “significantly less active”. The “Nighttime number of vertical movements (VMN) vs DMSO” value in the experiment on rats following MCAO [2] (12-hr test, p=0.015) is listed as “significantly more active”. Also, in the experiment with rats following MCAO [2] (12-hr test, p=0.03), the “Nighttime vertical time (VT) vs DMSO” value was “significantly less active”.
